Laboratory results taken from US4537962A, “Substituted 1,3,4-thiadiazolo[3,2-A]pyrimidines and compositions containing them” (Farmitalia Carlo Erba, S.p.A., priority 1982, dated 1985).

Assays:
[1] = approximate acute toxicity (LD50) in the mouse; settings: in vivo, po, per os, single administration of increasing doses, measured on the seventh day after the day of treatment
Source text: In view of their high therapeutic index, the compounds of the invention can be used safely in medicine, For example, the approximate acute toxicity (LD50) of the compounds 7-trans-(2-phenyl-ethenyl)-5H-1,3,4-thiadiazolo[3,2-a]pyrimidine-5-one, 2-methyl-7-trans-(2-phenyl-ethenyl)-5H-1,3,4-thiadiazolo[3,2-a]pyrimidine- 5-one, 7-trans-[2-(2,6-dichloro-phenyl)-ethenyl]-5H-1,3,4-thiadiazolo[3,2-a]pyrimidine-5-one, 7-trans-[2-(3-pyridyl)-ethenyl]-5H-1,3,4-thiadiazolo[3,2-a]pyrimidine-5-one, 7-trans-[2-(4-fluoro-phenyl)-ethenyl]-5H-1,3,4-thiadiazolo[3,2-a]pyrimidine-5-one, 2-phenyl-7-trans-[2-(3-pyridyl)-ethenyl]-5H-1,3,4-thiadiazolo[3,2-a]pyrimidine-5-one and 2-(4-methyl-phenyl)-7-trans-[2-(3-pyridyl)-ethenyl]-5H-1,3,4-thiadiazolo[3,2-a]pyrimidine-5-one in the mouse, determined by single administration of increasing doses and measured on the seventh day after the day of treatment, is higher than 800 mg/kg per os. Analogous toxicity data have been found for the other compounds of the invention.

gastric secretion = experiment: gastric antisecretory activity in rats by the pylorus ligature technique (method of H. Shay et al.); assay type: in vivo, Sprague-Dawley male rats; settings: 4 h; approximate ED50; rat, intraduodenal, four hours after pylorus ligature
Procedure: Gastric antisecretory activity was evaluated in rats by the pylorus ligature technique. Six Sprague-Dawley male rats (110-130 g) were used for each group. Twenty-four hours before the test, the rats were deprived of food but their water supply was maintained. On the day of the operation, the pylorus was ligated under light ether anaesthesia. Each compound was injected intraduodenally (i.d.) at the time of the ligature. Four hours after the ligature the rats were sacrificed, the stomach secretion was collected and centrifuged at 3500 r.p.m. for 10 minutes, and the volume, less sediment, was determined.
The amount of the free hydrochloric acid in the gastrc juice was determined by titration against 0.01N sodium hydroxide to pH 7.0 on the pH-meter.

restraint ulcers = experiment: inhibition of restraint ulcers in rats (anti-ulcerogenic activity, method of Bonfils et al.); assay type: in vivo, Sprague-Dawley male rats; settings: po; approximate ED50; rat, p.o. one hour before the immobilization; 4 hours immobilization; read-out: Antiulcerogenic activity p.o., ED50
Source text: The compounds of the present invention are active on the gastroenteric system, in particular they are endowed with anti-ulcerogenic and gastric anti-secretory activity and are therefore useful in therapy, for example in the prevention and treatment of peptic, e.g. duodenal, gastric and exophageal ulcers and to inhibit gastric acid secretion. The compounds of the invention are also useful for reducing the undesirable gastrointestinal side-effects resulting from systemic administration of anti-inflammatory prostaglandin synthetase inhibitors and may be, therefore, used for this purpose in association with them. The anti-ulcerogenic activity of the compounds of the invention is shown, e.g., by the fact that they are active in the test of the inhibition of restraint ulcers in rats, according to the method of Bonfils et al., (Therapie, 1960, 15, 1096; Jap. J. Pharmac. 1968, 18, 9).
Six Sprague-Dawley male rats (100-120 g) fasted 24 hours were used for the experiment: a square flexible small-mesh wire netting was used for the immobilization and 4 hours after the immobilization the rats were sacrificed, their stomachs were removed and the lesions counted under a dissecting microscope. The tested compounds were administered per os (p.o.) one hour before the immobilization.

Compound	LD50 at 168 h [1]	ED50 (gastric secretion)	ED50 (restraint ulcers)
O=c1cc(/C=C/c2ccc(F)cc2)nc2scnn12	> 800 mg/kg	–	–
Cc1ccc(-c2nn3c(=O)cc(/C=C/c4cccnc4)nc3s2)cc1 [2-(4-methyl-phenyl)-7-trans-[2-(3-pyridyl)-ethenyl]-5H-1,3,4-thiadiazolo[3,2-a]pyrimidine-5-one]	> 800 mg/kg	~50 mg/kg	–
Cc1nn2c(=O)cc(/C=C/c3ccccc3)nc2s1 [2-methyl-7-trans-(2-phenyl-ethenyl)-5H-1,3,4-thiadiazolo[3,2-a]pyrimidine-5-one]	> 800 mg/kg	–	–
O=c1cc(/C=C/c2cccnc2)nc2sc(-c3ccccc3)nn12 [2-phenyl-7-trans-[2-(3-pyridyl)-ethenyl]-5H-1,3,4-thiadiazolo[3,2-a]pyrimidine-5-one]	> 800 mg/kg	–	3 mg/kg
O=c1cc(/C=C/c2ccccc2)nc2scnn12 [7-trans-(2-phenyl-ethenyl)-5H-1,3,4-thiadiazolo[3,2-a]pyrimidine-5-one]	> 800 mg/kg	–	–
O=c1cc(/C=C/c2c(Cl)cccc2Cl)nc2scnn12 [7-trans-[2-(2,6-dichloro-phenyl)-ethenyl]-5H-1,3,4-thiadiazolo[3,2-a]pyrimidine-5-one]	> 800 mg/kg	–	–
O=c1cc(/C=C/c2cccnc2)nc2scnn12 [7-trans-[2-(3-pyridyl)-ethenyl]-5H-1,3,4-thiadiazolo[3,2-a]pyrimidine-5-one]	> 800 mg/kg	–	–
